# Reference: US20090232748A1 (ViraTox, L.L.C., priority 2003, published 2009)
# Read-outs that look alike come from different tables or passages of the source.
# Tests used:
# [1] = test system: MDCK (NBL-2)5 (ATCC type CCL-34) cell culture
# pH of acid solutions = assay type: physicochemical; details: at 0.1%
# [2] = test system: influenza A/Equi 2?Miami 1/63, ATCC VR517; assay: Virucidal assay: influenza virus exposed to CPC solutions, titrated in MDCK cell culture (Reed and Muench); assay type: cell-based, Orthomyxoviridie virus (influenza A/Equi 2)
# FeLV retrovirus = details: for reduction in the viral titer: 300 seconds, titer 6.0 logs/ml
# Protocol: (§2) FeLV retrovirus was gown in cell culture to a titer of 6.0 logs/ml.
# (§3) Briefly, virus suspensions were exposed to three concentrations of CPC, 0.025%, 0.05%, and 0.10%, for 300 seconds. Untreated virus served as controls. At the end of the exposure, the virus was titrated in CrFK cell culture. Viral titration was accomplished at each test article concentration by seeding 0.1 ml of a serial dilution of treated virus to the CrFK cell culture. Serial dilutions were prepared from 10^−1 to 10^−8 of the original virus concentration, or five million/ml (6.7 log units) and each dilution then placed in each of four wells (replicates) of a 96 well microplate. The inoculated cells (80 μl per well) are then incubated at 37° C. in a CO2 incubator for five days.
# [3] = test system: CrFK (ATCC type CCL-94) cell culture; assay: Cytotoxicity of CPC in the FeLV test
# Protocol: as §2, §3
# CrFK cell culture = assay: Cell toxicity / cytopathic effect on host cells in the FIP-2 corona virus test; assay type: cell-based
# Text: (§1) Untreated virus served as controls. […] They were then observed microscopically for CPE inhibition, reporting titers as TCID 50/ml, also expressed as plaque forming units (pfu's). The corrected virus titer (# positives×dilution) is reported in log/ml. Virucidal activity is thus defined as the number of logs reduction of virus titer between the test article and the control (Reed and Muench, Am. J. Hyg. 27:493-497, 1938).
# [4] = test system: Feline Infectious Peritonitis Type 2 (“FIP Type 2”) corona virus; assay: Virucidal bioassay: FIP-2 corona virus suspension exposed to test article, then titrated in CrFK cell culture (TCID50, Reed and Muench); assay type: cell-based, Feline Infectious Peritonitis Type 2 corona virus; details: for FIP-2 Titer / % Reduction / Reduction in Titer: 300 seconds exposure; for FIP-2 Titer: control titer 6.70 logs/ml
# Text: as §1
compound,measurement,setting,value
O=C(O)CC(O)(CC(=O)O)C(=O)O [citric acid],cytotoxic,[1]; acid solution at 0.1%,neither solution was cytotoxic
same,pH,pH of acid solutions,2.3
"CCCCCCCCCCCCCCCC[n+]1ccccc1 [CPC, Cetylpyridinium chloride]",reduction to the virus titers,[2]; 0.025% (weight/volume) CPC with 0.1% citric acid (weight/volume),greater than 3.5 log
same,reduction to the virus titers,[2]; 0.05% (weight/volume) CPC with 0.1% citric acid (weight/volume),greater than 3.5 log
same,cytotoxic affects,[1]; test solutions containing 0.025% CPC and 0.1% citric acid,no observed cytotoxic affects
same,reduction in the viral titer,FeLV retrovirus; CPC 0.025% in conjunction 0.1% citric acid,greater than 3.5 logs/ml
same,reduction in the viral titer,FeLV retrovirus; CPC 0.025% without citric acid,greater than 3.5 logs/ml
same,reduction of the FeLV virus,"FeLV retrovirus; all three levels of CPC (0.025%, 0.05%, 0.10%) with or without citric acid at 0.1%",100%
same,cytotoxic,[3]; CPC 0.025%,not cytotoxic
same,cytotoxic,[3]; CPC 0.05%,cytotoxic
same,cytotoxic,[3]; CPC 0.1%,cytotoxic
same,adverse cytopathic effects,"CrFK cell culture; 0.025% in solution, five minutes",without adverse cytopathic effects
same,FIP-2 Titer,[4]; CPC 0.025%,3.30 logs/ml
same,% Reduction,[4]; CPC 0.05%,99.97%
same,Reduction in Titer,[4]; CPC 0.05%,>3.20 logs
same,FIP-2 Titer,[4]; CPC 0.05%,<3.50 logs/ml
same,% Reduction,[4]; CPC 0.10%,99.97%
same,Reduction in Titer,[4]; CPC 0.10%,>3.20 logs
same,FIP-2 Titer,[4]; CPC 0.10%,<3.50 logs/ml
"Oc1cc(Cl)ccc1Oc1ccc(Cl)cc1Cl [Triclosan, triclosan]",cellular toxicity,"CrFK cell culture; three concentrations as employed with CPC (0.025%, 0.05%, 0.10%)",cellular toxicity at all three levels
same,viral reduction,"[4]; all three levels (0.025%, 0.05%, 0.10%)",no viral reduction
CC(=O)O [acetic acid],pH,pH of acid solutions,2.3
